Measurements taken from patent US9351974B2, “Substituted pteridinones for the treatment of cancer” (OSI Pharmaceuticals, LLC, priority 2011, dated 2016).

biological target: T1, His-tagged full-length RSK2 (RPS6KA3) (Homo sapiens, UniProt P51812); assay: RSK2 Omnia Assay for compound IC50 determination; format: biochemical; conditions: ATP 15 μM, n=2, read-out: Mean RSK2 Biochem IC50
T1 construct: His-tagged full-length RSK2 (RPS6KA3, Invitrogen PV3323); His; purchased Invitrogen PV3323
Procedure, shortened: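 Initial-rate slopes from continuous kinetic reads were fitted to a four-parameter equation for IC50 (n=2). Ki was then derived by Cheng-Prusoff assuming ATP-competitive inhibition. Reactions contained 15 μM ATP (Km 16.3 μM), 5 μM Omnia ST Peptide 6, and […] in 50 mM HEPES pH 7.5, 10 mM MgCl2, 1 mM DTT, 1% DMSO. Compounds spanned 11 threefold steps, […] final.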

T1 sequence (P51812 whole entry): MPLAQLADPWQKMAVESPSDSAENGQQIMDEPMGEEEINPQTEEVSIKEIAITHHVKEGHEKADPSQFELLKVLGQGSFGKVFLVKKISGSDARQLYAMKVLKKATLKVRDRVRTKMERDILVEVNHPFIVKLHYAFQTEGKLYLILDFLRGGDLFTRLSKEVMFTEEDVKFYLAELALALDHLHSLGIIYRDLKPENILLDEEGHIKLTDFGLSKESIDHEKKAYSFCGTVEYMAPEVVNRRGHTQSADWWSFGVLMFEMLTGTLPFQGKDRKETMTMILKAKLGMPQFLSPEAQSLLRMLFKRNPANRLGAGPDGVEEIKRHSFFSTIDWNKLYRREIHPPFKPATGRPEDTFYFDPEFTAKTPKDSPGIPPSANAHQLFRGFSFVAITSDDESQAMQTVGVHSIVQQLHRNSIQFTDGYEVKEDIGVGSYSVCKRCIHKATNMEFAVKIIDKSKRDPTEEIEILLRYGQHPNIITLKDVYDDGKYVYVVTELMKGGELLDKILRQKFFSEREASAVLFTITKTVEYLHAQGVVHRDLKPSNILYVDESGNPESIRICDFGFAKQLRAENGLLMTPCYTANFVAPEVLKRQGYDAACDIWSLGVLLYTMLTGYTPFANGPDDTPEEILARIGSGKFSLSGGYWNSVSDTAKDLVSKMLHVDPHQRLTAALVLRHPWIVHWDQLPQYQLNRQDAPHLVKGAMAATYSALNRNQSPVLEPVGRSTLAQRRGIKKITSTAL

| IC50 [nM] | SMILES |
| --- | --- |
| 100 to 1000 | C[C@@H]1C(=O)N(c2cccc(C#N)c2)c2cnc(Nc3ccccc3)nc2N1C1CCCCC1 [compound 156, 3-[(7R)-8-cyclohexyl-7-methyl-6-oxo-2-(phenylamino)-7,8-dihydropteridin-5(6H)-yl]benzonitrile] |
| ≤ 100 | C[C@@H]1C(=O)N(c2cccc(C#N)c2)c2cnc(Nc3ccc(C(=O)O)cc3)nc2N1C1CCCCC1 [compound 155, 4-{[(7R)-5-(3-cyanophenyl)-8-cyclohexyl-7-methyl-6-oxo-5,6,7,8-tetrahydropteridin-2-yl]amino}benzoic acid] |
| ≤ 100 | C[C@@H]1C(=O)N(c2cccc(C#N)c2)c2cnc(Nc3cc(F)c4[nH]ncc4c3)nc2N1[C@H]1CC[C@H](C)CC1 [compound 237, 3-[(7R)-2-[(7-fluoro-1H-indazol-5-yl)amino]-7-methyl-8-(trans-4-methylcyclohexyl)-6-oxo-7,8-dihydropteridin-5(6H)-yl]benzonitrile] |
| ≤ 100 | C[C@@H]1C(=O)N(c2cccc(C#N)c2)c2cnc(Nc3cc(F)c(O)c(F)c3)nc2N1C1CCOCC1 [compound 194, 3-[(7R)-2-[(3,5-difluoro-4-hydroxyphenyl)amino]-7-methyl-6-oxo-8-(tetrahydro-2H-pyran-4-yl)-7,8-dihydropteridin-5(6H)-yl]benzonitrile] |
| ≤ 100 | CC[C@@H]1C(=O)N(c2cccc(C#N)c2)c2cnc(Nc3cc(F)c4[nH]ncc4c3)nc2N1C1CCCC1 [Example 217, 3-[(7R)-8-cyclopentyl-7-ethyl-2-[(7-fluoro-1H-indazol-5-yl)amino]-6-oxo-7,8-dihydropteridin-5(6H)-yl]benzonitrile] |
| ≤ 100 | CC(C)CCN1c2nc(Nc3cc(F)c(O)c(F)c3)ncc2N(c2cccc(C#N)c2)C(=O)[C@H]1C [Example 89, 3-[(7R)-2-[(3,5-difluoro-4-hydroxyphenyl)amino]-7-methyl-8-(3-methylbutyl)-6-oxo-7,8-dihydropteridin-5(6H)-yl]benzonitrile] |
| ≤ 100 | C[C@@H]1C(=O)N(c2ccc(N3CCN(C)CC3)c(C#N)c2)c2cnc(Nc3cc(F)c4[nH]ncc4c3)nc2N1C1CCOCC1 [compound 206, 5-[(7R)-2-[(7-fluoro-1H-indazol-5-yl)amino]-7-methyl-6-oxo-8-(tetrahydro-2H-pyran-4-yl)-7,8-dihydropteridin-5(6H)-yl]-2-(4-methylpiperazin-1-yl)benzonitrile] |
| ≤ 100 | C[C@@H]1C(=O)N(c2cccc(C#N)c2)c2cnc(Nc3cc(F)c4[nH]ncc4c3)nc2N1C1CCC(C)(C)CC1 [Example 209, 3-[(7R)-8-(4,4-dimethylcyclohexyl)-2-[(7-fluoro-1H-indazol-5-yl)amino]-7-methyl-6-oxo-7,8-dihydropteridin-5(6H)-yl]benzonitrile] |
| ≤ 100 | C[C@@H]1C(=O)N(c2cccc(C#N)c2)c2cnc(Nc3cnc4[nH]c(=O)oc4c3)nc2N1C1CCCCC1 [compound 172, 3-[(7R)-8-cyclohexyl-7-methyl-6-oxo-2-[(2-oxo-2,3-dihydro[1,3]oxazolo[4,5-b]pyridin-6-yl)amino]-7,8-dihydropteridin-5(6H)-yl]benzonitrile] |
| ≤ 100 | C[C@@H]1C(=O)N(c2cccc(C#N)c2)c2cnc(Nc3cc(F)c4[nH]ncc4c3)nc2N1C1CCOCC1 [compound 186, 3-[(7R)-2-[(7-fluoro-1H-indazol-5-yl)amino]-7-methyl-6-oxo-8-(tetrahydro-2H-pyran-4-yl)-7,8-dihydropteridin-5(6H)-yl]benzonitrile] |
| ≤ 100 | C[C@@H]1C(=O)N(c2cccc(C#N)c2)c2cnc(Nc3ccc4[nH]nc(Cl)c4c3)nc2N1C1CCCCC1 [compound 108, 3-[(7R)-2-[(3-chloro-1H-indazol-5-yl)amino]-8-cyclohexyl-7-methyl-6-oxo-7,8-dihydropteridin-5(6H)-yl]benzonitrile] |
| ≤ 100 | C[C@@H]1C(=O)N(c2cccc(C#N)c2)c2cnc(Nc3ccc4[nH]c(=O)oc4c3)nc2N1C1CCC(F)(F)CC1 [compound 266, 3-[(7R)-8-(4,4-difluorocyclohexyl)-7-methyl-6-oxo-2-[(2-oxo-2,3-dihydro-1,3-benzoxazol-6-yl)amino]-7,8-dihydropteridin-5(6H)-yl]benzonitrile] |
| ≤ 100 | C[C@@H]1C(=O)N(c2cccnc2)c2cnc(Nc3cc(F)c4[nH]ncc4c3)nc2N1C1CCOCC1 [compound 191, (7R)-2-[(7-fluoro-1H-indazol-5-yl)amino]-7-methyl-5-(pyridin-3-yl)-8-(tetrahydro-2H-pyran-4-yl)-7,8-dihydropteridin-6(5H)-one] |

The remaining lines, values behind:

| SMILES | IC50 [nM] |
| --- | --- |
| COc1ccc(N2C(=O)[C@@H](C)N(C3CCC(C)(C)CC3)c3nc(Nc4cc(F)c5[nH]ncc5c4)ncc32)cc1OC [Example 210, (7R)-5-(3,4-dimethoxyphenyl)-8-(4,4-dimethylcyclohexyl)-2-[(7-fluoro-1H-indazol-5-yl)amino]-7-methyl-7,8-dihydropteridin-6(5H)-one] | ≤ 100 |
| Cc1ccc(N2C(=O)[C@@H](C)N(C3CCCCC3)c3nc(Nc4ccc5[nH]ncc5c4)ncc32)cc1C#N [Example 53, 5-[(7R)-8-cyclohexyl-2-(1H-indazol-5-ylamino)-7-methyl-6-oxo-7,8-dihydropteridin-5(6H)-yl]-2-methylbenzonitrile] | ≤ 100 |
| C[C@@H]1C(=O)N(c2ccccc2)c2cnc(Nc3ccc4[nH]ncc4c3)nc2N1CCCO [Example 77, (7R)-8-(3-hydroxypropyl)-2-(1H-indazol-5-ylamino)-7-methyl-5-phenyl-7,8-dihydropteridin-6(5H)-one] | 100 to 1000 |
| COc1cc(N2C(=O)[C@@H](C)N(C3CCCCC3)c3nc(Nc4ccc5[nH]ncc5c4)ncc32)ccc1F [Example 54, (7R)-8-cyclohexyl-5-(4-fluoro-3-methoxyphenyl)-2-(1H-indazol-5-ylamino)-7-methyl-7,8-dihydropteridin-6(5H)-one] | ≤ 100 |
| COc1cccc(N2C(=O)[C@@H](C)N(C3CCCCC3)c3nc(Nc4ccc5[nH]ncc5c4)ncc32)c1 [Example 28, (7R)-8-cyclohexyl-2-(1H-indazol-5-ylamino)-5-(3-methoxyphenyl)-7-methyl-7,8-dihydropteridin-6(5H)-one] | ≤ 100 |
| CNC(=O)Cc1ccc(Nc2ncc3c(n2)N(CCC(C)C)C(C)C(=O)N3c2ccccc2)cc1 (centres unmarked) [Example 5, N-methyl-2-(4-{[7-methyl-8-(3-methylbutyl)-6-oxo-5-phenyl-5,6,7,8-tetrahydropteridin-2-yl]amino}phenyl)acetamide] | 100 to 1000 |
| C[C@@H]1C(=O)N(c2cccnc2)c2cnc(Nc3cc(F)c4[nH]ncc4c3)nc2N1C1CCC(F)(F)CC1 [compound 264, (7R)-8-(4,4-difluorocyclohexyl)-2-[(7-fluoro-1H-indazol-5-yl)amino]-7-methyl-5-(pyridin-3-yl)-7,8-dihydropteridin-6(5H)-one] | ≤ 100 |
| C[C@@H]1C(=O)N(c2cccnc2)c2cnc(Nc3cc(F)c4[nH]ncc4c3)nc2N1C1CCCCC1 [compound 135, (7R)-8-cyclohexyl-2-[(7-fluoro-1H-indazol-5-yl)amino]-7-methyl-5-(pyridin-3-yl)-7,8-dihydropteridin-6(5H)-one] | ≤ 100 |
| C[C@@H]1C(=O)N(c2cccnc2)c2cnc(Nc3ccc4[nH]ncc4c3F)nc2N1C1CCCCC1 [compound 122, (7R)-8-cyclohexyl-2-[(4-fluoro-1H-indazol-5-yl)amino]-7-methyl-5-(pyridin-3-yl)-7,8-dihydropteridin-6(5H)-one] | ≤ 100 |
| COc1ccc(N2C(=O)[C@@H](C)N(CCC(C)C)c3nc(Nc4cc(F)c5[nH]ncc5c4)ncc32)cc1OC [Example 85, (7R)-5-(3,4-dimethoxyphenyl)-2-[(7-fluoro-1H-indazol-5-yl)amino]-7-methyl-8-(3-methylbutyl)-7,8-dihydropteridin-6(5H)-one] | ≤ 100 |
| COc1ccc(N2C(=O)[C@@H](C)N(C3CCOCC3)c3nc(Nc4ccc5[nH]nc(F)c5c4)ncc32)cc1OC [compound 187, (7R)-5-(3,4-dimethoxyphenyl)-2-[(3-fluoro-1H-indazol-5-yl)amino]-7-methyl-8-(tetrahydro-2H-pyran-4-yl)-7,8-dihydropteridin-6(5H)-one] | ≤ 100 |
| COc1ccc(N2C(=O)[C@@H](C)N(C3CCCCC3)c3nc(Nc4cnc5[nH]ncc5c4)ncc32)cc1C#N [compound 164, 5-[(7R)-8-cyclohexyl-7-methyl-6-oxo-2-(1H-pyrazolo[3,4-b]pyridin-5-ylamino)-7,8-dihydropteridin-5(6H)-yl]-2-methoxybenzonitrile] | ≤ 100 |
| C[C@@H]1C(=O)N(c2cccc(C#N)c2)c2cnc(Nc3ccc(S(N)(=O)=O)cc3)nc2N1C1CCC(F)(F)CC1 [compound 273, 4-{[(7R)-5-(3-cyanophenyl)-8-(4,4-difluorocyclohexyl)-7-methyl-6-oxo-5,6,7,8-tetrahydropteridin-2-yl]amino}benzenesulfonamide] | ≤ 100 |
| CC(C)Oc1ccc(N2C(=O)[C@@H](C)N(C3CCOCC3)c3nc(Nc4cnc5[nH]ncc5c4)ncc32)cc1C#N [compound 202, 5-[(7R)-7-methyl-6-oxo-2-(1H-pyrazolo[3,4-b]pyridin-5-ylamino)-8-(tetrahydro-2H-pyran-4-yl)-7,8-dihydropteridin-5(6H)-yl]-2-(propan-2-yloxy)benzonitrile] | ≤ 100 |
| C[C@@H]1C(=O)N(c2cccc(C#N)c2)c2cnc(Nc3cc4cn[nH]c4cn3)nc2N1C1CCC(F)(F)CC1 [compound 268, 3-[(7R)-8-(4,4-difluorocyclohexyl)-7-methyl-6-oxo-2-(1H-pyrazolo[3,4-c]pyridin-5-ylamino)-7,8-dihydropteridin-5(6H)-yl]benzonitrile] | 100 to 1000 |
| C[C@@H]1C(=O)N(c2ccc(N3CCCC3)nc2)c2cnc(Nc3cc(F)c4[nH]ncc4c3)nc2N1C1CCCCC1 [compound 141, (7R)-8-cyclohexyl-2-[(7-fluoro-1H-indazol-5-yl)amino]-7-methyl-5-[6-(pyrrolidin-1-yl)pyridin-3-yl]-7,8-dihydropteridin-6(5H)-one] | ≤ 100 |
